Results reported in patent US20060287533A1, “SOLVENT CONTAINING 1,2,5-THIADIAZOLE COMPOUND, AND METHOD FOR EXTRACTING AN ORGANIC COMPOUND USING THE SOLVENT” (Waseda University, priority 2004, published 2006).

Columns and labels:
Format in all cases: physicochemical
[1] = Separatory funnel phase separation of 1,2,5-thiadiazole and water; conditions: 10 ml 1,2,5-thiadiazole and 10 ml water, shaken vigorously, allowed to stand
Protocol: A 10 ml of 1,2,5-thiadiazole and 10 ml of water were put into a separatory funnel, and the system was shaken vigorously, to be allowed to stand.

[2] = Compatibility of 1,2,5-thiadiazole with other solvents; set-up: key: ◯: Circle: fully compatible to give a uniform mixture; Triangle: giving a white turbidity; X-mark: being divided into two phases; conditions: 1,2,5-thiadiazole mixed with the listed solvent at volume ratio 1/1 (2 ml), room temperature, visual inspection
Protocol: For 1,2,5-thiadiazole of the present invention, its compatibility with other solvents was studied. The test consisted of mixing 1,2,5-thiadiazole with another solvent at a volume ratio of 1/1 (2 ml), allowing the system to stand at room temperature, and visually inspecting the compatibility of the former with the latter.
Circle: fully compatible to give a uniform mixture
Triangle: giving a white turbidity
X-mark: being divided into two phases

[3] = Extracting activity: partition of compound between water phase and organic phase (TLC); conditions: for Ratio of content of compound in water phase against organic phase (Example 4): 2 mg compound in 100 μl 1,2,5-thiadiazole + 100 μl distilled water; for Ratio of content of compound in water phase against organic phase (Comp. Ex. 3): 2 mg compound in 100 μl chloroform + 100 μl distilled water; for Ratio of content of compound in water phase against organic phase (Comp. Ex. 4): 2 mg compound in 100 μl diethylether + 100 μl distilled water
Protocol: The extracting activity of 1,2,5-thiadiazole of the present invention was studied. A 2 mg of each of compounds 1 to 20 was dissolved in 100 μl of 1,2,5-thiadiazole, to which 100 μl of distilled water was added, and the system was subjected to separation operation. The ratio of the content of the compound in water phase against the counterpart in organic phase was determined using TLC, and the results are shown in Table 3.
The same procedure as in Example 4 was repeated except that 1,2,5-thiadiazole was replaced with chloroform, to determine the comparative extracting activity of chloroform.
The same procedure as in Example 4 was repeated except that 1,2,5-thiadiazole was replaced with diethylether, to determine the comparative extracting activity of diethylether.

[4] = Dissolving capability: amount of solvent needed to completely dissolve 20 mg of compound; conditions: 20 mg compound, room temperature; for Addition amount of solvent until compound completely dissolved (Example 3): solvent 1,2,5-thiadiazole, stirring; for Amount of solvent required for completely dissolving the compound (Comp. Ex. 1): solvent chloroform; for Amount of solvent required for completely dissolving the compound (Comp. Ex. 2): solvent diethylether
Protocol: The dissolving capability of 1,2,5-thiadiazole of the present invention was studied. A 20 mg of each of compounds 1 to 20 was transferred into a sample vial, to which 1,2,5-thiadiazole was added at room temperature with stirring. The addition was continued until the compound was completely dissolved, and the addition amount of the solvent was determined.
The same procedure as in Example 3 was repeated except that 1,2,5-thiadiazole was replaced with chloroform. The amount of the solvent required for completely dissolving the compound was determined.
The same procedure as in Example 3 was repeated except that 1,2,5-thiadiazole was replaced with diethylether. The amount of the solvent required for completely dissolving the compound was determined.

Compound | Ratio of content of compound in water phase against organic phase (Example 4) [3] | Ratio of content of compound in water phase against organic phase (Comp. Ex. 3) [3] | Ratio of content of compound in water phase against organic phase (Comp. Ex. 4) [3] | Addition amount of solvent until compound completely dissolved (Example 3) [4] [µL] | Amount of solvent required for completely dissolving the compound (Comp. Ex. 1) [4] | Amount of solvent required for completely dissolving the compound (Comp. Ex. 2) [4] | Phase separation from water [1] | Compatibility [2]
1,2,5-thiadiazole |  |  |  |  |  |  | clearly divided into two phases | 
CC(C)=O [Acetone] |  |  |  |  |  |  |  | ◯
CC#N [Acetonitrile] |  |  |  |  |  |  |  | ◯
c1ccccc1 [Benzene] |  |  |  |  |  |  |  | ◯
O=C1Cc2ccccc2N1 [Compound 1] | 1/100 | 1/10 | 1/5 | 100 | 400 µL | 2000 µL |  | 
CO[C@H]1OC(COCc2ccccc2)[C@H](N=[N+]=[N-])CC1NS(=O)(=O)c1ccc(C)cc1 (stereo partly drawn) [Compound 2] | 0/100 | 1/50 | 1/4 | 140 | 240 µL | 1600 µL |  | 
O=C1C(OCc2ccccc2)=C[C@@H](CO)[C@@H]1CO [Compound 3] | 1/5 | 4/5 | Hardly soluble | 160 | 200 µL | Insoluble |  | 
COCOc1cc(OCOC)c2c(c1)C(S(=O)(=O)c1ccccc1)OC2=O (stereo not drawn) [Compound 4] | 0/100 | Hardly soluble | Hardly soluble | 1000 | Hardly soluble | Hardly soluble |  | 
O=C(O)CNC(=O)OCc1ccccc1 [Compound 5] | 0/100 | 1/5 | 0/100 | 1000 | 2000 µL | 2000 µL |  | 
CO[C@H]1OC2COC(c3ccccc3)O[C@H]2C(O)C1NS(=O)(=O)c1ccc(C)cc1 (stereo partly drawn) [Compound 8] | 1/15 | 1/15 | 1/15 | 200 | 240 µL | 1600 µL |  | 
Cc1ccc(S(=O)(=O)O[C@@H]2C(C)O[C@@H](OCc3ccccc3)C3OC(=O)OC32)cc1 (stereo partly drawn) [Compound 9] | 0/100 | 0/100 | 0/100 | 20 | 200 µL | 6000 µL |  | 
CC(C)(C)[Si](C)(C)OCC1=CC2(OCCO2)C(O)C(O)C1=O (stereo not drawn) [Compound 11] |  |  |  | 200 | 400 µL | Hardly soluble |  | 
CN(C)C=O [Dimethylformamide] |  |  |  |  |  |  |  | ◯
CCO [Ethanol] |  |  |  |  |  |  |  | ◯
CCOC(C)=O [Ethyl acetate] |  |  |  |  |  |  |  | ◯
CO [Methanol] |  |  |  |  |  |  |  | ◯
Cc1ccccc1 [Toluene] |  |  |  |  |  |  |  | ◯
O [Water] |  |  |  |  |  |  |  | X
CCCCCC [n-Hexane] |  |  |  |  |  |  |  | ◯
Xylene |  |  |  |  |  |  |  | ◯

The next lines start with results.

Ratio of content of compound in water phase against organic phase (Example 4) [3] | Ratio of content of compound in water phase against organic phase (Comp. Ex. 3) [3] | Ratio of content of compound in water phase against organic phase (Comp. Ex. 4) [3] | Addition amount of solvent until compound completely dissolved (Example 3) [4] [µL] | Amount of solvent required for completely dissolving the compound (Comp. Ex. 1) [4] | Amount of solvent required for completely dissolving the compound (Comp. Ex. 2) [4] | Compound | Phase separation from water [1] | Compatibility [2]
0/100 | 1/5 | Hardly soluble | 1000 | 2000 µL | Hardly soluble | Cc1ccc(S(=O)(=O)OCCC2(CCS(=O)(=O)c3ccccc3)OCCO2)cc1 [Compound 6] |  | 
0/100 | 0/100 | 0/100 | 100 | 200 µL | 2000 µL | CC(=O)Oc1ccc(OC(C)=O)c(OC(C)=O)c1 [Compound 7] |  | 
0/100 | 1/100 | Hardly soluble | 200 | 400 µL | Hardly soluble | COCOc1cc(OC)c(OC)c2c1C(=O)OC2 [Compound 10] |  | 
 |  |  | 200 | 200 µL | 200 µL | CC/C=C(\C)CN1C(=O)OC[C@H]1C(C)C [Compound 12] |  | 
 |  |  | 100 | 100 µL | 2000 µL | O=C1C=CC2(C=C1CO)OCCO2 [Compound 14] |  | 
 |  |  | 100 | 100 µL | 2400 µL | CC1(C)OCc2cc(OCCO)ccc2O1 [Compound 15] |  | 
 |  |  | 100 | 100 µL | 200 µL | COCCCCC(O)C(O)C(=O)OC (stereo not drawn) [Compound 16] |  | 
 |  |  | 40 | 40 µL | 4000 µL | Cc1oc2ccccc2c(=O)c1C [Compound 17] |  | 
 |  |  | 200 | 200 µL | 200 µL | CC(=O)OCC1OCCC(OC(C)=O)[C@@H]1OC(C)=O (stereo partly drawn) [Compound 18] |  | 
 |  |  | 100 | 100 µL | 4800 µL | CCCCCC(=O)CC(=O)NC1CCOC1=O (stereo not drawn) [Compound 19] |  | 
